Consider three compounds from ChEMBL document CHEMBL4831514, “Novel betulin dicarboxylic acid ester derivatives as potent antiviral agents: Design, synthesis, biological evaluation, structure-activity relationship and in-silico study” (Eur J Med Chem, 2021).

For orientation: EC50 means the concentration giving half of the maximal effect.

The subject of series [1] is Influenza A virus. The series can be described thus: Antiviral activity against Influenza A virus H1N1 (A/PR/8/34) infected in MDCK cells assessed as reduction in virus titer treated 1 hr post viral infection followed by replacement with fresh medium with compounds and measured after 72 hrs by MTT assay. It counts as functional, organism-based. The note with it: H1N1 A/PR/8/34, MDCK.

A short description of series [2]: Selectivity index, ratio of CC50 for cytotoxicity against dog MDCK cells to EC50 for antiviral activity against Influenza A virus H1N1 (A/PR/8/34) infected in MDCK cells assessed as reduction in virus titer treated 1 hr post viral infection followed by replacement with fresh medium with compounds and measured after 72 hrs by MTT assay. The settings on record: read-out: Selectivity Index. It counts as toxicity, cell-based.

For series [3], the system named is Influenza A virus. The series can be described thus: Potency index, ratio of oseltamivir EC50 to test compound EC50 for antiviral activity against Influenza A virus H1N1 (A/PR/8/34) infected in MDCK cells assessed as reduction in virus titer treated 1 hr post viral infection followed by replacement with fresh medium with compounds and measured after 72 hrs by MTT assay. It counts as functional. Background: Formazan colour is commonly taken as a measure of viable cells.

Turning to `C=C(C)[C@@H]1CC[C@]2(COC(=O)CSCC(=O)O)CC[C@]3(C)[C@H](CC[C@@H]4[C@@]5(C)CC[C@H](O)C(C)(C)[C@@H]5CC[C@]43C)[C@@H]12`, the EC50 in series [1] amounted to 21.1 µM. In series [2], the selectivity ratio at 72 h stood at 2. Also, the “Ratio EC50” value in series [3] is given as 3.

As for `CCOC(=O)C1=C[C@@H](OC(CC)CC)[C@H](NC(C)=O)[C@@H](N)C1` [OSELTAMIVIR], the concentration giving a half-maximal response (EC50) in series [1] stood at 80.1 µM. Further, in series [2], the selectivity ratio at 72 h is 98.2.

As for `C#CC1(NC(=O)/C(C)=C/C(=O)OC[C@]23CC[C@@H](C(=C)C)[C@@H]2[C@H]2CC[C@@H]4[C@@]5(C)CC[C@H](O)C(C)(C)[C@@H]5CC[C@@]4(C)[C@]2(C)CC3)CCCCC1`, the EC50 in series [1] turned out to be 27.2 µM. In series [2], the selectivity ratio at 72 h was found to be 2. The “Ratio EC50” value in series [3] is on record as 3.
